Entries after “also recorded” stand apart in the source; their conditions may differ.
Key:
1-4 Hz slow wave EEG = 1-4 Hz slow wave EEG amplitude; assay type: in vivo, male Wistar rats
[1] = tested on: retention of the avoidance response; assay: Inhibitory avoidance test; assay type: in vivo
From the text: The inhibitory (or sometimes called passive) avoidance (IA) test is a well-accepted animal model for learning/memory and is widely used to assess the activity of novel cognition enhancers in enhancing cognitive function (Wanibuchi et al., Eur. J. Pharmacol., 1990, 187:479). According to this test, animals are placed in the illuminated (12×14×11 cm) portion of a two-chambered box, from which they enter through a guillotine door to the larger (24×13.5×12 cm) dark compartment of the box. Entry to the dark compartment is accompanied by a mild (0.35 mA), brief (2 seconds) footshock. Initial latencies to cross are recorded, with an imposed 60 second ceiling. Following a 24 hour retention interval, animals are returned to the illuminated chamber, and latency to return to the dark compartment is again recorded, with a ceiling of 180 seconds. No footshock is administered on the test day.
Twelve animals were used in each group.

Structure (SMILES): Cc1cc([C@@H]2CCCN2C)on1.O=C(O)C(=O)O [Example 2, 3-Methyl-5-(1-methyl-2(S)-pyrrolidinyl)-isoxazole oxalate salt]
- 1-4 Hz amplitude (1-4 Hz slow wave EEG; 1.9 μmol/kg i.p.): 27.3 ± 5.0 μVolts
- effect on low frequency (1-4 Hz) EEG slow-wave patterns (1-4 Hz slow wave EEG; i.p.): does not affect those patterns
- equally efficacious at fraction of the dose of (-)-nicotine in IA ([1]; dose relative to (-)-nicotine): 1/17
- Inhibitory Avoidance (IA) result ([1]; i.p. 15 min before training, retention at 24 h, p<0.05, oxalate salt): significantly facilitated the retention of the avoidance response; also recorded: significant

From US5409946A, “Isoxazole, isothiazole and pyrazole compounds that enhance cognitive function” (Abbott Laboratories, priority 1993, dated 1995)
